Reference: ChEMBL document CHEMBL4145510, “Discovery of a Keap1-dependent peptide PROTAC to knockdown Tau by ubiquitination-proteasome degradation pathway” (Eur J Med Chem, 2018)
Activity calls are given as the source filed them. No cut-off for these calls is given here.

Tests used:
[1] = target: Cullin-3/Microtubule-associated protein tau (Homo sapiens) (UniProt P10636+Q13618); experiment: Induction of Cul3- mediated EGFP tagged Tau (unknown origin) degradation in human SH-SY5Y cells harboring Keap1 siRNA at 10 uM by Western blot analysis; type: cell-based
[2] = target: T1, Kelch-like ECH-associated protein 1/Microtubule-associated protein tau/Cullin-3 (Homo sapiens) (UniProt P10636+Q14145+Q13618); experiment: Induction of Keap1/Cul3- mediated EGFP tagged Tau (unknown origin) degradation in human SH-SY5Y cells at 10 uM incubated for 10 hrs in presence of proteasome inhibitor MG132 by Western blot analysis; type: cell-based
[3] = Induction of Keap1/Cul3- mediated EGFP tagged Tau (unknown origin) degredation in mouse Neuro2a cells by Western blot analysis; type: cell-based
[4] = target: Microtubule-associated protein tau (Homo sapiens, UniProt P10636); experiment: Binding affinity to human Tau (1 to 441 residues) by ITC method
[5] = target: Kelch-like ECH-associated protein 1/Microtubule-associated protein tau (Homo sapiens) (UniProt P10636+Q14145); experiment: Binding affinity to Keap1/Tau in human SH-SY5Y cells at 10 to 20 uM by Western blot analysis; type: cell-based
[6] = Induction of Keap1/Cul3- mediated EGFP tagged Tau (unknown origin) degradation in rat PC12 cells by Western blot analysis; type: cell-based
[7] = Drug uptake in human SH-SY5Y cells using N-terminal TAMRA labeled compound at 10 uM after 8 hrs by DAPI staining-based laser scanning confocal microscopic analysis; type: ADME, cell-based
[8] = target: T1, Kelch-like ECH-associated protein 1/Microtubule-associated protein tau/Cullin-3 (Homo sapiens); experiment: Induction of Keap1/Cul3- mediated EGFP tagged Tau (unknown origin) degradation in human SH-SY5Y cells at 20 uM after 10 hrs by flow cytometry analysis; type: cell-based
[9] = target: Kelch-like ECH-associated protein 1 (Homo sapiens, UniProt Q14145); experiment: Binding affinity to human Keap1 (322 to 609 residues) by ITC method
[10] = Drug uptake in human SH-SY5Y cells using N-terminal TAMRA labeled compound at 10 uM after 12 hrs by Flow cytometry analysis; type: ADME, cell-based
[11] = target: T1, Kelch-like ECH-associated protein 1/Microtubule-associated protein tau/Cullin-3 (Homo sapiens); experiment: Induction of Keap1/Cul3- mediated EGFP tagged Tau (unknown origin) degradation in human SH-SY5Y cells at 10 uM incubated for 10 hrs in absence of proteasome inhibitor MG132 by Western blot analysis; type: cell-based

T1 sequence (P10636 whole entry, looked up): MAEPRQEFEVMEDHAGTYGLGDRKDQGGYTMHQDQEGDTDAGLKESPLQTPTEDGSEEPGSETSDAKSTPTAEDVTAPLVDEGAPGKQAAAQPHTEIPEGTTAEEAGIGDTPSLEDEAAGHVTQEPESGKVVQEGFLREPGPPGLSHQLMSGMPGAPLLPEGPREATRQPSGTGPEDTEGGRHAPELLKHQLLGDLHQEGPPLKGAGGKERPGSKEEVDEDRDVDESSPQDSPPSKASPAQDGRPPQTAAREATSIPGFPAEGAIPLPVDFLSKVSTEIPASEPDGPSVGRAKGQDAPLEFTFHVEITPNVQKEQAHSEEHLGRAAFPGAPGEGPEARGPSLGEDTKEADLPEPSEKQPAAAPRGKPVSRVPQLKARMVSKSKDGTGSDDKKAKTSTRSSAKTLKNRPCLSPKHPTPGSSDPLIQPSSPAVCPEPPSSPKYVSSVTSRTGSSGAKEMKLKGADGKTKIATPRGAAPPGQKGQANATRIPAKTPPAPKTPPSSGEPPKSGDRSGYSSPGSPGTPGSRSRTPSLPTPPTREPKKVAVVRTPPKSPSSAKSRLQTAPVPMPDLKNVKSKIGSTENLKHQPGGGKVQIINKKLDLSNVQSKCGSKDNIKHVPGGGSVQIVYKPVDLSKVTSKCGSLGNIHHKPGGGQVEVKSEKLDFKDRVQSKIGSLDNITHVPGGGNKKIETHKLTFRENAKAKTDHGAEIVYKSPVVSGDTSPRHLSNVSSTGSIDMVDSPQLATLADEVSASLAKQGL
T1 sequence (Q13618 whole entry, looked up): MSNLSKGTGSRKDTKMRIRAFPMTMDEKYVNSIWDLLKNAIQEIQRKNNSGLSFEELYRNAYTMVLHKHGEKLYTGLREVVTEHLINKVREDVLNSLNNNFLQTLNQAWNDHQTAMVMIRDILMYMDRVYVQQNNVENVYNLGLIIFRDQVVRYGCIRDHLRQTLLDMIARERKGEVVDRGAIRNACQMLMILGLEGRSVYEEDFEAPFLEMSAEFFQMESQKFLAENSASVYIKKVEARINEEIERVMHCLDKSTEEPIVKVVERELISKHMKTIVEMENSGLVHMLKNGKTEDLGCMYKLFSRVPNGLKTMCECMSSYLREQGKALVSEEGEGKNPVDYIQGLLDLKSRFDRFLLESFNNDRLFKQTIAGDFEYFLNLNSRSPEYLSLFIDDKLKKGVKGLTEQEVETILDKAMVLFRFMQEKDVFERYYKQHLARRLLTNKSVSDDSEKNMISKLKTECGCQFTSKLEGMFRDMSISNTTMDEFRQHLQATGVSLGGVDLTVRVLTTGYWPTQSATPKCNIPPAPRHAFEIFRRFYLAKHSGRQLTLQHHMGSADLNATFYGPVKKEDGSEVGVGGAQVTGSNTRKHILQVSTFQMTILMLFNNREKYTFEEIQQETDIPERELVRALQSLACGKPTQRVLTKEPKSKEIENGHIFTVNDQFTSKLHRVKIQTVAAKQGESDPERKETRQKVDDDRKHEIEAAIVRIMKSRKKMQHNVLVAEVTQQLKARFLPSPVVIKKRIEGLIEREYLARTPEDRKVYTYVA
T1 sequence (Q14145 whole entry, looked up): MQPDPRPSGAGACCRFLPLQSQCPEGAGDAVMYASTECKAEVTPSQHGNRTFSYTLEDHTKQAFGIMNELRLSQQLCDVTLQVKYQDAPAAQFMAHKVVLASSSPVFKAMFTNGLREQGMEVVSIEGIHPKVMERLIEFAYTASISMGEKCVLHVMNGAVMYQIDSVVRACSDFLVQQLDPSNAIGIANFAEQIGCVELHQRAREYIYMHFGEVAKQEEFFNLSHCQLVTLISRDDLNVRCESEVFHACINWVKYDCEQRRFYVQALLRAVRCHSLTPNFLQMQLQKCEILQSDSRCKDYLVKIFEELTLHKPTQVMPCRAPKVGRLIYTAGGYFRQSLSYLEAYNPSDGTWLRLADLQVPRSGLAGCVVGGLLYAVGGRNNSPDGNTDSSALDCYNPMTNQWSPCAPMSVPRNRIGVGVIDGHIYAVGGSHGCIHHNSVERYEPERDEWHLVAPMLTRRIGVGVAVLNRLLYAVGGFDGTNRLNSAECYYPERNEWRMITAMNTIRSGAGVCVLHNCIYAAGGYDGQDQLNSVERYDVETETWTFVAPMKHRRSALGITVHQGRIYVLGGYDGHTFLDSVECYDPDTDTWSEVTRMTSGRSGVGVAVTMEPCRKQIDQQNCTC
Cullin-3/Microtubule-associated protein tau (Homo sapiens), sequence (P10636 whole entry, looked up): as the sequence (P10636 whole entry, looked up) above
Cullin-3/Microtubule-associated protein tau (Homo sapiens), sequence (Q13618 whole entry, looked up): as the sequence (Q13618 whole entry, looked up) above
Kelch-like ECH-associated protein 1, sequence (Q14145 whole entry, the tested form may be a part): as the sequence (Q14145 whole entry, looked up) above
Kelch-like ECH-associated protein 1/Microtubule-associated protein tau (Homo sapiens), sequence (P10636 whole entry, looked up): as the sequence (P10636 whole entry, looked up) above
Kelch-like ECH-associated protein 1/Microtubule-associated protein tau (Homo sapiens), sequence (Q14145 whole entry, looked up): as the sequence (Q14145 whole entry, looked up) above
Microtubule-associated protein tau, sequence (P10636 whole entry, the tested form may be a part): as the sequence (P10636 whole entry, looked up) above

Row | Activity [1] | Activity [2] | Activity [8] | Activity [11] | SMILES | other results
1 | inactive | inactive | Active | Active | CC(=O)N[C@@H](Cc1ccc(O)cc1)C(=O)N[C@@H](CCC(N)=O)C(=O)N[C@@H](CCC(N)=O)C(=O)N[C@@H](Cc1ccc(O)cc1)C(=O)N[C@@H](CCC(N)=O)C(=O)N[C@@H](CC(=O)O)C(=O)N[C@@H](C)C(=O)N[C@H](C(=O)N[C@@H](C)C(=O)N[C@@H](CC(=O)O)C(=O)N[C@@H](CCC(=O)O)C(=O)N[C@@H](CCC(N)=O)C(=O)NCC(=O)NCC(=O)N[C@@H](CO)C(=O)NCC(=O)N[C@@H](CO)C(=O)N[C@@H](CC(C)C)C(=O)N[C@@H](CC(=O)O)C(=O)N1CCC[C@H]1C(=O)N[C@@H](CCC(=O)O)C(=O)N[C@H](C(=O)NCC(=O)N[C@@H](CCC(=O)O)C(=O)N[C@@H](Cc1ccc(O)cc1)C(=O)N[C@@H](CC(C)C)C(=O)N[C@H](CCCNC(=N)N)C(=O)N[C@H](CCCNC(=N)N)C(=O)N[C@H](CCCNC(=N)N)C(=O)N[C@H](CCCNC(=N)N)C(=O)N[C@H](CCCNC(=N)N)C(=O)N[C@H](CCCNC(=N)N)C(=O)N[C@H](CCCNC(=N)N)C(=O)N[C@H](CCCNC(=N)N)C(=O)O)[C@@H](C)O)[C@@H](C)O | Activity [3]: Dose-dependent effect; Kd [4]: 763 nM; Activity [5]: Active; Activity [6]: Dose-dependent effect; Drug uptake [7]: Active; Kd [9]: 22.8 nM; Drug uptake [10]: Active
2 |  |  | Active |  | CC(=O)N[C@@H](Cc1ccc(O)cc1)C(=O)N[C@@H](CCC(N)=O)C(=O)N[C@@H](CCC(N)=O)C(=O)N[C@@H](Cc1ccc(O)cc1)C(=O)N[C@@H](CCC(N)=O)C(=O)N[C@@H](CC(=O)O)C(=O)N[C@@H](C)C(=O)N[C@H](C(=O)N[C@@H](C)C(=O)N[C@@H](CC(=O)O)C(=O)N[C@@H](CCC(=O)O)C(=O)N[C@@H](CCC(N)=O)C(=O)NCC(=O)NCC(=O)N[C@@H](CO)C(=O)NCC(=O)N[C@@H](CO)C(=O)N[C@@H](CC(C)C)C(=O)N[C@@H](CC(=O)O)C(=O)N1CCC[C@H]1C(=O)N[C@@H](CCC(=O)O)C(=O)N[C@H](C(=O)NCC(=O)N[C@@H](CCC(=O)O)C(=O)N[C@@H](Cc1ccccc1)C(=O)N[C@@H](CC(C)C)C(=O)N[C@H](CCCNC(=N)N)C(=O)N[C@H](CCCNC(=N)N)C(=O)N[C@H](CCCNC(=N)N)C(=O)N[C@H](CCCNC(=N)N)C(=O)N[C@H](CCCNC(=N)N)C(=O)N[C@H](CCCNC(=N)N)C(=O)N[C@H](CCCNC(=N)N)C(=O)N[C@H](CCCNC(=N)N)C(=O)O)[C@@H](C)O)[C@@H](C)O | 

Further lines, the compound ahead of its results:

Row | SMILES | Activity [1] | Activity [2] | Activity [8] | Activity [11] | other results
3 | CC(=O)N[C@@H](CCCCN)C(=O)N[C@@H](CC(=O)O)C(=O)N[C@@H](Cc1ccc(O)cc1)C(=O)N[C@@H](CCC(=O)O)C(=O)N[C@@H](CCC(=O)O)C(=O)N[C@H](C(=O)NCC(=O)N[C@H](C(=O)N[C@@H](CC(=O)O)C(=O)N[C@@H](CO)C(=O)N[C@H](C(=O)N[C@@H](CCC(=O)O)C(=O)NCC(=O)N[C@@H](CO)C(=O)NCC(=O)N[C@@H](CO)C(=O)N[C@@H](CC(C)C)C(=O)N[C@@H](CC(=O)O)C(=O)N1CCC[C@H]1C(=O)N[C@@H](CCC(=O)O)C(=O)N[C@H](C(=O)NCC(=O)N[C@@H](CCC(=O)O)C(=O)N[C@@H](Cc1ccc(O)cc1)C(=O)N[C@@H](CC(C)C)C(=O)N[C@H](CCCNC(=N)N)C(=O)N[C@H](CCCNC(=N)N)C(=O)N[C@H](CCCNC(=N)N)C(=O)N[C@H](CCCNC(=N)N)C(=O)N[C@H](CCCNC(=N)N)C(=O)N[C@H](CCCNC(=N)N)C(=O)N[C@H](CCCNC(=N)N)C(=O)N[C@H](CCCNC(=N)N)C(=O)O)[C@@H](C)O)C(C)C)C(C)C)C(C)C |  |  | Active |  | 
4 | CC(=O)N[C@@H](Cc1ccc(O)cc1)C(=O)N[C@@H](CCC(N)=O)C(=O)N[C@@H](CCC(N)=O)C(=O)N[C@@H](Cc1ccc(O)cc1)C(=O)N[C@@H](CCC(N)=O)C(=O)N[C@@H](CC(=O)O)C(=O)N[C@@H](C)C(=O)N[C@H](C(=O)N[C@@H](C)C(=O)N[C@@H](CC(=O)O)C(=O)N[C@@H](CCC(=O)O)C(=O)N[C@@H](CCC(N)=O)C(=O)NCC(=O)NCC(=O)N[C@@H](CO)C(=O)NCC(=O)N[C@@H](CO)C(=O)N[C@@H](CC(C)C)C(=O)N[C@@H](CC(=O)O)C(=O)N1CCC[C@H]1C(=O)N[C@@H](C)C(=O)N[C@H](C(=O)NCC(=O)N[C@@H](CCC(=O)O)C(=O)N[C@@H](Cc1ccc(O)cc1)C(=O)N[C@@H](CC(C)C)C(=O)N[C@H](CCCNC(=N)N)C(=O)N[C@H](CCCNC(=N)N)C(=O)N[C@H](CCCNC(=N)N)C(=O)N[C@H](CCCNC(=N)N)C(=O)N[C@H](CCCNC(=N)N)C(=O)N[C@H](CCCNC(=N)N)C(=O)N[C@H](CCCNC(=N)N)C(=O)N[C@H](CCCNC(=N)N)C(=O)O)[C@@H](C)O)[C@@H](C)O | inactive | inactive | inactive | inactive | 
5 | CC(=O)N[C@@H](Cc1ccc(O)cc1)C(=O)N[C@@H](CCC(N)=O)C(=O)N[C@@H](CCC(N)=O)C(=O)N[C@@H](Cc1ccc(O)cc1)C(=O)N[C@@H](CCC(N)=O)C(=O)N[C@@H](CC(=O)O)C(=O)N[C@@H](C)C(=O)N[C@H](C(=O)N[C@@H](C)C(=O)N[C@@H](CC(=O)O)C(=O)N[C@@H](CCC(=O)O)C(=O)N[C@@H](CCC(N)=O)C(=O)NCC(=O)NCC(=O)NCC(=O)N[C@@H](CO)C(=O)NCC(=O)NCC(=O)N[C@@H](CC(C)C)C(=O)N[C@@H](CC(=O)O)C(=O)N1CCC[C@H]1C(=O)N[C@@H](CCC(=O)O)C(=O)N[C@H](C(=O)NCC(=O)N[C@@H](CCC(=O)O)C(=O)N[C@@H](Cc1ccc(O)cc1)C(=O)N[C@@H](CC(C)C)C(=O)N[C@H](CCCNC(=N)N)C(=O)N[C@H](CCCNC(=N)N)C(=O)N[C@H](CCCNC(=N)N)C(=O)N[C@H](CCCNC(=N)N)C(=O)N[C@H](CCCNC(=N)N)C(=O)N[C@H](CCCNC(=N)N)C(=O)N[C@H](CCCNC(=N)N)C(=O)N[C@H](CCCNC(=N)N)C(=O)O)[C@@H](C)O)[C@@H](C)O |  |  | inactive |  | 
